According to the METLIN SMRT retention time set (Domingo-Almenara et al. 2019):

Test: gradient 5% acetonitrile 3 min, to 50% in 2 min, to 85% in 15 min, held 3 min, 100 µL/min
Details: column: Zorbax Extend-C18 2.1 x 50 mm; eluents: water / acetonitrile, 0.1% formic acid
Procedure, shortened: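 Values are retention times taken from adduct peaks that software picked and an analyst inspected. The pure standards were run as mixtures of ~100 molecules on HPLC linked to a quadrupole time-of-flight mass spectrometer, in positive and negative ionization mode. A Zorbax Extend-C18 column (2.1 × 50 mm, 1.8 μm) was used at 100 μL/min with water and acetonitrile, each including 0.1% formic acid.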

| SMILES | RP-LC retention time |
| --- | --- |
| COC(=O)c1c(C)[nH]c(C(=O)N2CCCC(C(=O)N3CCC(C)CC3)C2)c1C (stereo not given) | 758 s |
| O=C(Cn1c(=O)oc2ccc(C(=O)N3CCCC3)cc21)N1CCC(Cc2ccccc2)CC1 | 868 s |
| Cc1ccccc1NC(=O)N1CCC(n2cnc3c(C)cccc3c2=O)CC1 | 754 s |
| Cn1c(=O)n(C)c2cc(CNc3cc(C(=O)O)ccc3Cl)ccc21 | 738 s |
| COC(=O)c1ccc(NC(=O)N2CCCC2c2cc(C(C)C)on2)cc1 (stereo not given) | 890 s |
| O=C(Nc1ccc(F)cc1)N1CCC(N2CCN(Cc3cccc(F)c3)C(=O)C2=O)CC1 | 722 s |
| COc1ccc(Nc2nc(N3CCN(c4ncccn4)CC3)nc3c2C(=O)CCC3)cc1 | 1010 s |
| CCOC(=O)C1CCN(C(=O)Cc2c(C(=O)O)c(C)cn2CC)CC1 | 715 s |
| CSc1ccc(-c2nc3ncccn3c2Nc2cc(C)ccc2C)cc1 | 864 s |
| Cc1ccc2c(c1)N(Cc1cccc(F)c1)N=C(C(=O)N1CCCC1)S2(=O)=O | 876 s |
| O=C1[C@H]2CN(Cc3ccccc3Cl)C[C@H]2C(=O)N1Cc1ccc2c(c1)OCO2 | 930 s |
| COc1ccc(NC(=O)c2cc(C)n3nc(-c4ccco4)cc3n2)cc1F | 1060 s |
| O=C(Nc1nnc(SCc2cccc(Cl)c2)s1)c1ccccc1C(F)(F)F | 1010 s |
| CCOC(=O)c1c(C)c(CCC(=O)NC(C)c2ccc3c(c2)OCCO3)n(C)c1C (stereo not given) | 845 s |
| CCCN(CCC#N)C(=O)CN1CC2=C(C1=O)C(c1ccccc1Cl)NC(=O)N2C (stereo not given) | 634 s |
| Cn1c(=O)c2cc(C(=O)Nc3ccc(F)cc3)cnc2n(-c2ccc(F)cc2)c1=O | 960 s |
| CN(C)[C@@H]1CN(Cc2ccc(Br)o2)CC[C@@H]1CNC(=O)C1CC1 | 574 s |
| COCCN(CC(=O)N1CCc2sccc2C1COc1ccccc1OC)C(C)=O (stereo not given) | 757 s |
| Cc1nn(-c2ccccc2)c(C)c1S(=O)(=O)N1CCC(C(=O)Nc2ccc(Cl)cc2)CC1 | 726 s |
| COc1cccc(NC(=O)N2CCc3nc[nH]c3C2)c1 | 554 s |
| COC(=O)c1cc(OC)c(OC)cc1NC(=O)C1Oc2ccccc2OC1C (stereo not given) | 1040 s |
| CCOc1ccc(-c2cc3c(=O)n(Cc4nc(-c5ccccc5C)no4)ccn3n2)cc1 | 1170 s |

| SMILES | RP-LC retention time |
| --- | --- |
| COc1cc(NC(=O)c2nc(C)oc2C)cc(OC)c1 | 750 s |
| COc1cccc(Nc2c(-c3ccc(Br)cc3)nc3cnccn23)c1 | 972 s |
| O=C(NCCNS(=O)(=O)CCOc1ccc(F)cc1)c1ccc(NC(=O)C2CC2)cc1 | 710 s |
| O=C(C1CCN(c2cnc3nccnc3c2)CC1)N1CCC2(CC1)OCCO2 | 620 s |
| CCOC(=O)Nc1ccc(S(=O)(=O)N2CCC(c3nc4ccccc4[nH]3)CC2)cc1 | 582 s |
| O=C(NCc1cc(F)ccc1F)C1CCc2nc(N3CCOCC3)ncc2C1 (stereo not given) | 715 s |
| COc1cccc2c(Nc3ccc(N(C)C)cc3)cc(C(=O)N3CCSCC3)nc12 | 682 s |
| CCCN(C)C(=O)c1ccc(-c2nnc3ccc(NC(=O)C4CCC4)cn23)cc1 | 760 s |
| CC(C)(C)N(C(=O)c1ccccc1[N+](=O)[O-])C(=O)N1CCCCC1 | 828 s |
| Cc1noc2ncn(CC(=O)NCc3ccccc3F)c(=O)c12 | 705 s |
| CCOC(=O)c1c(C)oc2nc(C)nc(N3CCN(Cc4ccc5c(c4)OCO5)CC3)c12 | 708 s |
| O=C(CS(=O)(=O)c1ccc(Cl)cc1)Nc1nc(-c2ccc3c(c2)OCO3)cs1 | 959 s |
| COc1cccc(CNC(=O)C2CCN(S(=O)(=O)c3ccc4c(c3)NC(=O)C(C)O4)CC2)c1 (stereo not given) | 757 s |
| O=C(CCCn1c(=O)c2cccn2c2ccc(Br)cc21)NCc1ccc2c(c1)OCO2 | 915 s |
| CCc1cc(C(=O)NCc2ccc(C)o2)nc2cc(-c3ccccn3)nn12 | 778 s |
| COCCNC(=O)N1CCCN(C2=NS(=O)(=O)C(c3ccc(Cl)cc3)=C2C)CC1 | 718 s |
| CC(=O)N1C[C@@H]2CCCN3CCC[C@@H]([C@H]23)[C@H]1CCCC(=O)NCCCc1c(C)noc1C | 575 s |
| O=C(NCCc1csc(C2CCN(C(=O)C3CCCO3)CC2)n1)C1CCC1 (stereo not given) | 626 s |
| CC(C)CCNC(=O)C1CCN(c2cnn(Cc3ccccc3)c(=O)c2)CC1 | 790 s |
| COc1ccc2[nH]c3c(c2c1)CCN(C(=O)C1CC1)C3c1ccc(F)cc1 (stereo not given) | 949 s |
| CCCNC(=O)C1CCN(c2nc3ccc(-c4cncnc4)nc3s2)CC1 | 719 s |
| CCN1C(=O)C2CC3(CCN(Cc4ccc5cc[nH]c5c4)CC3)CN2C1=O (stereo not given) | 621 s |

| SMILES | RP-LC retention time |
| --- | --- |
| CCN(CC)S(=O)(=O)c1ccc2c(c1)N(CC(=O)NCCCOC)C(=O)C1CCCCN21 (stereo not given) | 802 s |
| O=C(Cc1cn2cc(F)ccc2n1)Nc1ccc(F)cc1 | 594 s |
| COc1ccc(CNC(=O)CN2CCN(Cc3ccccc3)C(=O)C2=O)cc1 | 684 s |
| CCOC(=O)c1noc2ncnc(NCC3CCN(Cc4ccccc4Cl)CC3)c12 | 603 s |
| Cc1nc2cc(-c3noc(CNC(=O)Cc4ccc(Cl)cc4)n3)ccc2o1 | 858 s |
| COc1ccc(-c2noc(-c3cccn(CC(=O)Nc4ccc(C#N)cc4)c3=O)n2)cc1OC | 779 s |
| CCN1CCN(CCNC(=O)CCCn2c3ccccc3c3cnn(C)c(=O)c32)CC1 | 579 s |
| CC(C)CNC(=O)C1CCCN(c2cnc3nccnc3c2)C1 (stereo not given) | 658 s |
| CO[C@H]1C(=O)N(C2CCN(S(=O)(=O)c3cccnc3)CC2)[C@H]1c1ccncc1 | 579 s |
| Cc1cccc(Cn2nc3ccc(S(=O)(=O)N4CCCC4)cn3c2=O)c1 | 881 s |
| O=C(NC1CCCC1)c1cccn1Cc1noc(-c2ccccc2)n1 | 981 s |
| COC(=O)c1ccccc1Nc1c(-c2cccc(Br)c2)nc2cnccn12 | 1090 s |
| COc1ccc(CCc2nc3nccc(-c4ccccn4)n3n2)cc1 | 837 s |
| O=C(CN1C(=O)C(C(=O)N2CCCC2)Sc2ccccc21)N1CCN(c2ccccc2)CC1 (stereo not given) | 842 s |
| CC(C)OCCCNC(=O)CCC(=O)N1CC2CCCN2c2ccccc21 (stereo not given) | 822 s |
| COc1ccccc1NC(=O)N1CCC2(C1)C(=O)N(C)c1ccccc12 (stereo not given) | 818 s |
| Cc1ccc(CNC(=O)c2nnc(-c3ccc(S(=O)(=O)N4CCCC4)cc3)o2)cc1 | 940 s |
| COc1cc(-c2noc(CN3C(=O)COc4cc(C)ccc43)n2)cc(OC)c1OC | 974 s |
| Cc1ccc(-c2nnc(Cc3nc(-c4cccs4)no3)o2)cc1F | 1010 s |
| O=C(CCC[C@@H]1[C@H]2CCCN3CCC[C@@H](CN1C(=O)c1cc(F)cc(F)c1)[C@@H]23)N1CCOCC1 | 605 s |
| CCn1cc(-c2ccncc2)cc1C(=O)NCc1ccc2c(c1)OCO2 | 641 s |
